Earlier results, collected in patent US4808590A (priority 1988, dated 1989).

Conditions: British Patent Specification Nos. 1,078,049 and 932,875; cited from earlier work

## C=C1C[C@](OC)([C@H](O)C(=O)N[C@@H](OC)[C@@H]2C[C@@H](O)C(C)(C)[C@@H](C[C@@H](COC)OC)O2)O[C@H](C)[C@@H]1C [Pederin]
  antimitotic activity: shows antimitotic activity
